Measured values: paper PMC4774972, “Activity and Predicted Nephrotoxicity of Synthetic Antibiotics Based on Polymyxin B” (Journal of Medicinal Chemistry, 2016)
Converted amounts (≈) assume the structure as drawn. Bridge positions count the residues as written; N and C are the ends. Square brackets hold non-standard residues; d marks the D form. Peptide text beside a SMILES is read from it. * marks the point of attachment. Bip = N[C@@H](Cc1ccc(-c2ccccc2)cc1)C(=O)O; dBip = N[C@H](Cc1ccc(-c2ccccc2)cc1)C(=O)O; Gly(octyl) = CCCCCCCC[C@H](N)C(=O)O; Octanoyl = CCCCCCCC(=O)*; Dab = NCC[C@H](N)C(=O)O

Experiments:
HepG2 = conditions: CC50 HepG2 (µM)
[1] = tested on: K. pneumoniae CI 138-16357-20362, PmxR; conditions: MIC K. pneumoniae CI 138-16357-20362, PmxR (µg/mL)
[2] = tested on: A. baumannii CI Ptyela 100734512:2, PmxR; conditions: MIC A. baumannii CI Ptyela 100734512:2, PmxR (µg/mL)
[3] = tested on: K. pneumoniae CI Koprana 100650661:1, PmxR; conditions: MIC K. pneumoniae CI Koprana 100650661:1, PmxR (µg/mL)
[4] = tested on: P. aeruginosa FADDI-PA070, PmxR; conditions: MIC P. aeruginosa FADDI-PA070, PmxR (µg/mL)
[5] = tested on: P. aeruginosa PA9704, PmxR; conditions: MIC P. aeruginosa PA9704, PmxR (µg/mL)
[6] = tested on: S. aureus ATCC 25923, MSSA; conditions: MIC S. aureus ATCC 25923, MSSA (µg/mL)
[7] = tested on: K. pneumoniae CI 138-16357-20362, PmxR; test: microbe, parasite or virus in culture; assay type: cell-based, Klebsiella pneumoniae; conditions: carbapenem & polymyxin resistant clinical isolate; MHB, 5 × 10^5 CFU/mL, 18 h at 37 °C
Experimental: (§1) Bacteria were either obtained from American Type Culture Collection (ATCC; Manassas, VA, USA) or independent academic clinical isolate collections, as listed in Table S2. Bacteria were cultured in nutrient broth (NB; Bacto Laboratories, catalog no. 234000) or Muller Hinton broth (MHB; Bacto Laboratories, catalog no. 211443) at 37 °C overnight with shaking (∼180 rpm). A sample of each culture was then diluted 50-fold in fresh MHB and incubated at 37 °C for 1.5–3 h with shaking (∼180 rpm). Compound stock solutions were prepared as 0.64 or 2.56 mg/mL in water. The compounds, at twice the final desired concentration, were serially diluted 2-fold across the wells of 96-well plates (Polystyrene, Corning, catalogue No. 3370). Mid log phase bacterial cultures (after 1.5–3 h incubation) were diluted to a final concentration of 5 × 10^5 colony forming units (CFU)/mL, and 50 μL was added to each well giving a final compound concentration range of 32 μg/mL to 0.015 μg/mL (128–0.06 μg/mL for colistin and polymyxin B against the polymyxin resistant clinical isolates). MICs were determined visually after 18 h of incubation at 37 °C, with the MIC defined as the lowest compound concentration at which no bacterial growth was visible.
(§2) Table S2. Bacterial strains used for Minimum Inhibitory Concentration (MIC) […]
(§3) Organism Strain Strain description Strain Source
(§4) Escherichia coli ATCC 25922 FDA strain Seattle 1946 ATCC
(§5) Klebsiella pneumoniae ATCC 13883 Control strain ATCC
(§6) Klebsiella pneumoniae ATCC 700603 Multi-drug resistant ATCC
(§7) Klebsiella pneumoniae BAA-2146 Metallo-beta-lactamase- ATCC
(§8) Acinetobacter baumannii ATCC 19606 Type strain ATCC
(§9) Pseudomonas aeruginosa ATCC 27853 Type strain ATCC
(§10) Pseudomonas aeruginosa FADDI-PA070 Clinical isolate, Nation and Li labs, polymyxin resistant Monash University
(§11) Clinical isolate, Wang Hengzhuang, Pseudomonas aeruginosa PA9704 polymyxin resistant University Hospital of […]
(§12) Ptyela Clinical isolate, Ilias Karaiskos and Acinetobacter baumannii Carbapenem & Helen Giamarellou
(§13) Clinical isolate, Medicine, Hygeia
(§14) Klebsiella pneumoniae Koprana Carbapenem, & General Hospital, […]
(§15) Clinical isolate, (Instituto Dante […]
(§16) polymyxin resistant Cardiologia, São […]

[8] = tested on: K. pneumoniae CI Koprana 100650661:1, PmxR; test: microbe, parasite or virus in culture; assay type: cell-based, Klebsiella pneumoniae; conditions: carbapenem & polymyxin resistant clinical isolate; MHB, 5 × 10^5 CFU/mL, 18 h at 37 °C
Experimental: as §1, §2, §3, §4, §5, §6, §7, §8, §9, §10, §11, §12, §13, §14, §15, §16

`CCCCCCCC(=O)N[C@@H](CCN)C(=O)N[C@H](C(=O)N[C@@H](CCN)C(=O)N[C@H]1CCNC(=O)[C@H]([C@@H](C)O)NC(=O)[C@H](CCN)NC(=O)[C@H](CCN)NC(=O)[C@H](CC(C)C)NC(=O)[C@@H](Cc2ccc(-c3ccccc3)cc2)NC(=O)[C@H](CCN)NC1=O)[C@@H](C)O` (Octanoyl-[Dab]T[Dab][Dab][Dab][dBip]L[Dab][Dab]T; lactam 4-C) was tested, and the CC50 (HepG2) was 119 µM.
`CCCCCCCC(=O)N[C@@H](CCN)C(=O)N[C@H](C(=O)N[C@@H](CCN)C(=O)N[C@H]1CCNC(=O)[C@H]([C@@H](C)O)NC(=O)[C@H](CCN)NC(=O)[C@H](CCN)NC(=O)[C@H](Cc2ccc(-c3ccccc3)cc2)NC(=O)[C@@H](Cc2ccccc2)NC(=O)[C@H](CCN)NC1=O)[C@@H](C)O` (Octanoyl-[Dab]T[Dab][Dab][Dab][dF][Bip][Dab][Dab]T; lactam 4-C) gave an MIC [1] greater than 32 µg/mL and a CC50 (HepG2) of 117 µM.
`CCCCCCCC[C@@H]1NC(=O)[C@@H](Cc2ccccc2)NC(=O)[C@H](CCN)NC(=O)[C@@H](NC(=O)[C@H](CCN)NC(=O)[C@@H](NC(=O)[C@H](CCN)NC(=O)CCCCCCC)[C@@H](C)O)CCNC(=O)[C@H]([C@@H](C)O)NC(=O)[C@H](CCN)NC(=O)[C@H](CCN)NC1=O` (Octanoyl-[Dab]T[Dab][Dab][Dab][dF][Gly(octyl)][Dab][Dab]T; lactam 4-C) showed an MIC [2] of 8 µg/mL (≈ 6.42 µM), an MIC [1] of 32 µg/mL (≈ 25.7 µM) and an MIC [3] of 32 µg/mL (≈ 25.7 µM). For the same compound, the MIC [4] was 16 µg/mL (≈ 12.8 µM), the MIC [5] was 8 µg/mL (≈ 6.42 µM) and the MIC [6] was 8 µg/mL (≈ 6.42 µM). It also gave a CC50 (HepG2) of 116 µM.
In the case of `CCCCCCCC(=O)N[C@H](C(=O)N[C@@H](CCN)C(=O)N[C@H]1CCNC(=O)[C@H]([C@@H](C)O)NC(=O)[C@H](CCN)NC(=O)[C@H](CCN)NC(=O)[C@H](CC(C)C)NC(=O)[C@@H](Cc2ccccc2)NC(=O)[C@H](CCN)NC1=O)[C@@H](C)O` [Compound 12] (Octanoyl-T[Dab][Dab][Dab][dF]L[Dab][Dab]T; lactam 3-C), the MIC [2] is reported as greater than 32 µg/mL, the MIC [1] is reported as greater than 32 µg/mL and the MIC [3] is reported as greater than 32 µg/mL. For the same compound, the MIC [4] was greater than 32 µg/mL, the MIC [5] was greater than 32 µg/mL and the MIC [6] was greater than 32 µg/mL. The CC50 (HepG2) was greater than 300 µM, the “MIC K. pneumoniae CI 138-16357-20362, PmxR” value [7] was greater than 32 µg/mL and the “MIC K. pneumoniae CI Koprana 100650661:1, PmxR” value [8] was greater than 32 µg/mL.
`CCCCCCCC(=O)N[C@@H](CCN)C(=O)N[C@H](C(=O)N[C@@H](CCN)C(=O)N[C@H]1CCNC(=O)[C@H]([C@@H](C)O)NC(=O)[C@H](CCNC(=O)[C@@H](N)CCCNC(=N)N)NC(=O)[C@H](CCN)NC(=O)[C@H](CC(C)C)NC(=O)[C@@H](Cc2ccccc2)NC(=O)[C@H](CCN)NC1=O)[C@@H](C)O` [Compound 18] (Octanoyl-[Dab]T[Dab][Dab][Dab][dF]L[Dab][Dab](Arg)T; lactam 4-C) gave an MIC [2] greater than 32 µg/mL, an MIC [1] greater than 32 µg/mL and an MIC [3] greater than 32 µg/mL. It also gave an MIC [4] greater than 32 µg/mL, an MIC [5] greater than 32 µg/mL and an MIC [6] greater than 32 µg/mL. For the same compound, the CC50 (HepG2) was greater than 300 µM, the “MIC K. pneumoniae CI 138-16357-20362, PmxR” value [7] was greater than 32 µg/mL and the “MIC K. pneumoniae CI Koprana 100650661:1, PmxR” value [8] was greater than 32 µg/mL.
Work on `CCCCCCCC(=O)N[C@@H](CCN)C(=O)N[C@H](C(=O)N[C@@H](CCN)C(=O)N[C@H]1CCNC(=O)[C@H]([C@@H](C)O)NC(=O)[C@H](CCNC(=O)[C@@H](N)CCC(=O)O)NC(=O)[C@H](CCN)NC(=O)[C@H](CC(C)C)NC(=O)[C@@H](Cc2ccccc2)NC(=O)[C@H](CCN)NC1=O)[C@@H](C)O` [Compound 19] (Octanoyl-[Dab]T[Dab][Dab][Dab][dF]L[Dab][Dab](Glu)T; lactam 4-C) yielded an MIC [2] greater than 32 µg/mL, an MIC [1] greater than 32 µg/mL and an MIC [3] greater than 32 µg/mL. For the same compound, the MIC [4] was greater than 32 µg/mL, the MIC [5] was greater than 32 µg/mL and the MIC [6] was greater than 32 µg/mL. For the same compound, the CC50 (HepG2) was greater than 300 µM, the “MIC K. pneumoniae CI 138-16357-20362, PmxR” value [7] was greater than 32 µg/mL and the “MIC K. pneumoniae CI Koprana 100650661:1, PmxR” value [8] was greater than 32 µg/mL.
